Source: patent publication US11117919B2, “Icariside compound, preparation method thereof, and application thereof” (FOSHAN GOLDEN HEALTH TECHNOLOGY CO., LTD., priority 2015, dated 2021)
Entries after “also recorded” stand apart in the source; their conditions may differ.

Assays:
[1] = test system: normal human peripheral blood mononuclear cells (PBMCs); test: IFN-γ production by PBMCs stimulated with Anti-CD3 (ELISA); assay type: cell-based; settings: PBMCs treated with anti-CD3 (1 μg/ml); icariside I 1, 10, 100 ng/ml; 12-48 h; time and dose dependent
Protocol: Effect of icariside I on promoting normal human peripheral blood mononuclear cells (PBMCs subjected to mAb treatment) to produce γ-interferon (interferon-gamma, IFN-γ) (an experimental model mimicking enhancing immunity in human body).
(1) Preparation of icariside I solution for the test. 10 mg icariside I was dissolved in 1 ml DMSO (with initial concentration of 10 mg/ml). The solution was then transferred into small vials and stored in a freezer at −80° C. for future use.
The whole blood samples were drawn from peripheral vein of healthy volunteers. Heparin (blood:heparin=10 ml: 80 μl) was used for anticoagulation. Then, it is diluted with equal volume of Hank's solution. The diluted blood samples were slowly laid on the Ficoll separation solution (Ficoll to diluted blood ratio is 3:4) followed by Ficoll density gradient centrifugation (22° C. 2200 r/min, 20 min). After centrifugation, samples were divided into three layers in the tube. At the interface between the top and middle layers, there was a narrow band which is a mononuclear cell-based yellow-white cloud layer. The peripheral blood mononuclear cells (PBMCs) were drawn and transferred into another centrifuge tube with a pipette. […] The mononuclear cells were counted with trypan blue solution. […]
The collected cell culture supernatants with different culture time were detected with ELISA to measure the amount of cytokine IFN-γ produced. […]

[2] = test system: S180 ascites tumor of mice; test: Inhibition of S180 tumor growth in mice; settings: for change of body weight (g) / tumor inhibition rate (%) with physiological saline group as control / tumor inhibition rate (%) with solvent group as control / weight of tumor (x ± SD, g): 10 days
Protocol: NIH mice used for the tests were about 18-22 grams and divided into 10 mice per group. The liquid (0.2 ml) of S180 ascites tumor of mice was inoculated subcutaneously into the armpit region of mice. The next day after the inoculation, each group of mice were injected intraperitoneally: (1) physiological saline group; (2) solvent control group (DMSO); (3) positive control group [cyclophosphamide 60 mg/(kg·d)]; (4) low-dose group 1: icariside I 2 mg/(kg·d); (5) low-dose group 2: icariside I 5 mg/(kg·d); (6) middle-dose group: icariside I 10 mg/(kg·d); (7) high-dose group: icariside I 20 mg/(kg·d). After administration for 10 continuous days, the administration was stopped and on the next day, the mice were weighed and sacrificed with tumor mass stripped and weighed. The physiological saline group and solvent group were used as a control for calculation of tumor inhibition rate.

[3] = test system: human peripheral blood mononuclear cells (PBMCs); test: Immunological screening model: IFN-γ produced in human PBMCs; assay type: cell-based
From the text: The present inventors have long been researching the active components in traditional Chinese herbal medicine and their applications in immunotherapy. The present inventors have established an immunological test model based on determination of the level of IFN-γ produced in human peripheral blood mononuclear cells (PBMCs). By this model, compounds having promotion (or inhibition) effects on human peripheral blood mononuclear cells (PBMCs) to produce γ-interferon can be screened out from chemical components from various sources including traditional Chinese herbal medicine, medicinal plants and so on. Since the γ-Interferon is an important protein (cytokine) in human body's immune system to resist attacks from diseases, its production level in body directly relates to the body's immunity. Therefore, the model is an ideal tool to screen and find functional pharmaceuticals for improving human immunity.
In addition, all the results and achievements of the present invention are based on the very effective screening model established by the present inventors. Therefore, a further objective of the present invention is to provide an experimental model for screening substances having impacts (either enhance or inhibit) on immunity. […] Finally, by using ELISA techniques, the levels of IFN-γ produced in the culture were measured at different incubation time. […]

With COc1ccc(-c2oc3c(CC=C(C)C)c(O[C@@H]4O[C@H](CO)[C@@H](O)[C@H](O)[C@H]4O)cc(O)c3c(=O)c2O)cc1 [icariside I] the “IFN-γ level produced by PBMCs” value [1] was “significantly enhanced; also recorded: significantly increased”, the “tumorigenesis and tumor progression in mice” value ([2]; S180, intraperitoneal, 10 continuous days, 2-20 mg/(kg·d)) was “significantly inhibit” and the “change of body weight (g)” value ([2]; high dose 20 mg/Kg i.p.) was “+9.0 g”. The “tumor inhibition rate (%) with physiological saline group as control” value ([2]; high dose 20 mg/Kg i.p.) was 67.3%, the “tumor inhibition rate (%) with solvent group as control” value ([2]; high dose 20 mg/Kg i.p.) was 74.6% and the “weight of tumor (x ± SD, g)” value ([2]; high dose 20 mg/Kg i.p.) was 0.34 ± 0.12 g. For the same molecule, the “change of body weight (g)” value ([2]; low dose 2 mg/Kg i.p.) was “+11.6 g”, the “tumor inhibition rate (%) with physiological saline group as control” value ([2]; low dose 2 mg/Kg i.p.) was 5.8% and the “tumor inhibition rate (%) with solvent group as control” value ([2]; low dose 2 mg/Kg i.p.) was 26.9%. For the same molecule, the “weight of tumor (x ± SD, g)” value ([2]; low dose 2 mg/Kg i.p.) was 0.98 ± 0.47 g, the “change of body weight (g)” value ([2]; low dose 5 mg/Kg i.p.) was “+12.5 g” and the “tumor inhibition rate (%) with physiological saline group as control” value ([2]; low dose 5 mg/Kg i.p.) was 26.0%. The “tumor inhibition rate (%) with solvent group as control” value ([2]; low dose 5 mg/Kg i.p.) was 42.5%, the “weight of tumor (x ± SD, g)” value ([2]; low dose 5 mg/Kg i.p.) was 0.77 ± 0.47 g and the “change of body weight (g)” value ([2]; middle dose 10 mg/Kg i.p.) was “+10.6 g”. The “tumor inhibition rate (%) with physiological saline group as control” value ([2]; middle dose 10 mg/Kg i.p.) was 38.5%, the “tumor inhibition rate (%) with solvent group as control” value ([2]; middle dose 10 mg/Kg i.p.) was 52.2% and the “weight of tumor (x ± SD, g)” value ([2]; middle dose 10 mg/Kg i.p.) was 0.64 ± 0.25 g. The “effect in promoting PBMCs to generate IFN-γ” value [3] was “significant effect”.
